The NIST ThermoML archive (doi:10.1021/je034159d)
Numbers after ± are expanded uncertainties.

Assays:
[1] = refractive index (Na D-line) (dimensionless); details: 313.15 K; 101.33 kPa; Liquid; refractometer
[2] = 313.15 K; 101.33 kPa; Liquid; Vibrating tube method

SMILES	refractive index [1]	mass density [2] [kg/m3]
CCOC(=O)OCC [diethyl carbonate]	1.3754 ± 0.0001	952.43 ± 0.08
COC(=O)OC [dimethyl carbonate]	1.359 ± 0.0001	1043.19 ± 0.08
